Patent US20050009893A1, “Treatment of high blood pressure during the acute phase of a stroke” (Solvay Pharmaceuticals GmbH, priority 2001, published 2005)

Assay: ACCESS study (acute candesartan cilexetil evaluation in stroke survivors): early antihypertensive treatment after acute stroke versus placebo
Type: in vivo
Conditions: 342 enrolled stroke patients
Description: In order to clarify the question, the ACCESS study (acute candesarten cilexetil evaluation in stroke survivors) was conceived, which has now been completed.
The rational basis of the ACCESS study was the question whether early treatment of elevated blood pressure values in stroke treatment using a substance which affects the renin-angiotensin system in a blocking manner, could reduce the morbidity, mortality and neurological deficits resulting from such strokes. The main question posed related to the use of early antihypertensive treatment of patients with elevated blood pressure values after a stroke. […]
After enrollment of the patients in the study, a randomized therapy with candesartancilexetil or placebo was carried out. Depending upon the measured blood pressure values and patient specific criteria, the therapy was begun with once daily administration of one half to one tablet (corresponding to from 4 to 8 mg candesartancilexetil or placebo). […]

## CCOc1nc2cccc(C(=O)O)c2n1Cc1ccc(-c2ccccc2-c2nnn[nH]2)cc1 [candesartan]
Early treatment from 72 hours up to and including seven days after the stroke, placebo group first treated after one week (30 events)
  cardiovascular end point (number of events) in the course of a twelve month observation period: 17
Twelve month observation period, 17 vs. 30
  difference with respect to the cardiovascular end point in favor of early treatment versus placebo group: about 43%
